In patent US7820628B2, “Tumor lesion regression and conversion in situ into autologous tumor vaccines by compositions that result in anti-Gal antibody binding” (University of Massachusetts Medical School, priority 2005, dated 2010):

Test system: human natural anti-Gal
Experiment: TLC immunostaining of red blood cell glycolipids with human natural anti-Gal
Format: binding
Settings: glycolipids on thin layer chromatography plates
Text: A rich source for α-gal glycolipids is rabbit red blood cells. The two major glycosphingolipids (GSL), i.e. glycolipids with ceramide tail, in rabbit red blood cell membranes are ceramide (Cer) trihexoside (CTH, with 3 sugars [hexoses], present also in human red blood cells) with the structure Galα1-4Galβ1-4Glc-Cer and ceramide pentahexoside (CPH, with 5 sugars [hexoses]) with α-gal epitopes as terminal part of the CPH structure of Galα1-3Galβ1-4GlcNAcβ1-3Galβ1-4Glc-Cer (Eto T, Iichikawa Y, Nishimura K, Ando S, Yamakawa T J. Biochem. (Tokyo) 1968; 64: 205-13, and Stellner K, Saito H, Hakomori S. Arch. Biochem. Biophys. 1973; 133: 464-72) (See FIG. 1 and FIG. 6A, lane 1).
The use of α-gal glycolipids in the clinical setting may require much more material than that isolated from rabbit red blood cell membranes. The logistic limitations in supplies of large amounts of rabbit red blood cells can be overcome by the use of bovine red blood cells (i.e., for example, cow) instead of rabbit red blood cells since there is no practical limit to the amounts of bovine blood which can be supplied for preparation of α-gal glycolipids. […]

Substance: Galα1-3Galβ1-4GlcNAcβ1-3Galβ1-4Glc-Cer [CPH]
- anti-Gal binding on TLC immunostaining: binding of the antibody to CPH
